In PubChem BioAssay (NCI):
Several values for one entry are separate records, joined by “and”; a condition that tells them apart may be missing. Identical values can stand only once.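 Values below derive from 48-hour exposures of cells grown in 96-well plates, with endpoints linearly interpolated between the two concentrations bracketing the appropriate inhibition level. GI50: concentration for 50% inhibition of growth. TGI: total growth inhibition.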

What was measured:
Experiment in all cases: NCI tumour cell line growth inhibition, 48 h
DLD-1 colon = test system: DLD-1 colon
DMS 114 small cell lung = test system: DMS 114 small cell lung
KM20L2 colon = test system: KM20L2 colon
LXFL 529 NSCLC = test system: LXFL 529 NSCLC
SNB-78 CNS = test system: SNB-78 CNS
XF 498 CNS = test system: XF 498 CNS
MDA-N = test system: MDA-N
HOP-18 NSCLC = test system: HOP-18 NSCLC
RXF-631 renal = test system: RXF-631 renal
P388 leukemia = test system: P388 leukemia
SN12K1 renal = test system: SN12K1 renal

SMILES | TGI (DLD-1 colon) | TGI (DMS 114 small cell lung) | TGI (KM20L2 colon) | TGI (LXFL 529 NSCLC) | TGI (SNB-78 CNS) [µM] | TGI (XF 498 CNS) | TGI (MDA-N) | TGI (HOP-18 NSCLC) | TGI (RXF-631 renal) [µM] | also measured
Cc1cc(C)nc(NS(=O)(=O)c2ccc(NC(=O)COC(=O)c3cccc4c(=O)c5ccccc5[nH]c34)cc2)n1 | > 100 µM | > 100 µM | > 100 µM | > 100 µM | > 100 | > 100 µM | – | – | – | –
C=C(Br)COc1ccc2c(C)cc(=O)oc2c1 | – | – | – | – | – | – | > 100 µM | – | – | –
Fc1ccc(N=C2C=CC(=Nc3ccc(F)cc3)c3ccccc32)cc1 | > 100 µM | – | > 100 µM | > 100 µM | > 100 | > 100 µM | – | > 100 µM | – | –
Cc1ccc(NC(=O)CC2SC(=Nc3ccc(Cl)cc3)NC2=O)cc1C (stereo unspecified) | 38.5 µM | 42.1 µM | 33.5 µM | 34 µM | 44.3 | – | – | 32.5 µM | – | –
CC(C)C1=CC2=C(C(=O)C1=O)C13CCCC(C)(C)C1CC2OC3=O (stereo unspecified) | – | – | – | – | – | – | 37.2 µM | – | – | –
COc1cc(CC(=O)O)c([N+](=O)[O-])cc1OC | > 100 µM | > 100 µM | > 100 µM | > 100 µM | > 100 | – | – | – | > 100 | –
CCn1ncc(N=O)c1N | – | – | – | – | – | – | > 100 µM | – | – | –
Nc1nc(N)c2c(n1)CCC(S(=O)(=O)c1ccc3ccccc3c1)C2 (stereo unspecified) | – | – | – | – | – | – | > 100 µM | – | – | –
O=C(CC1(O)C(=O)Nc2ccccc21)c1ccccc1O (stereo unspecified) | > 100 µM | > 100 µM | > 100 µM | > 100 µM | > 100 | > 100 µM | – | – | > 100 | –
Cc1cc(C)c(/C=N/NS(=O)(=O)c2ccccc2)c(C)c1 | > 100 µM | > 100 µM | > 100 µM | > 100 µM | > 100 | – | – | > 100 µM | > 100 | –
CC(=O)Nc1ccc(C2=N/C(=C\c3ccc(Cl)cc3)C(=O)O2)cc1 | > 100 µM | – | > 100 µM | 56.9 µM | > 100 | 61.4 µM | – | > 100 µM | – | –
[CH3][Hg]/[N]=C(/N)NC#N | 16.9 µM | 3.43 µM | 33.4 µM | 3.08 µM | 27.1 | – | – | 17.1 µM | – | GI50 (DLD-1 colon): 4.27 µM; GI50 (DMS 114 small cell lung): 1.98 µM; GI50 (HOP-18 NSCLC): 4.63 µM; GI50 (KM20L2 colon): 17.3 µM; GI50 (LXFL 529 NSCLC): 1.43 µM; GI50 (SNB-78 CNS): 4.76 µM
COc1ccc2nc3ccccc3c(NCCN(CCCl)CCCl)c2c1 | 4.04 µM | – | 2.4 µM | 2.25 µM | 4.53 | 1.89 µM | – | – | 4.71 | –
COc1cc2c(cc1[N+](=O)[O-])C(=O)C(Br)(Br)CCC2 | – | – | – | – | – | – | 9.46 µM | – | – | –
c1ccc(CC(Nc2cccnc2)c2ccccc2)cc1 (stereo unspecified) | – | – | – | – | – | – | 47.8 µM | – | – | –
CCC(C)C1NC(=O)C(NC(=O)C(CC(C)C)N(C)C(=O)[C@@H]2CC(O)CN2C(=O)[C@H](C)O)C(C)OC(=O)[C@H](Cc2ccc(OC)cc2)N(C)C(=O)[C@@H]2CCCN2C(=O)[C@H](CC(C)C)NC(=O)C(C)C(=O)[C@H](C(C)C)OC(=O)CC1O (stereo partly specified) | – | – | – | – | – | – | 1.07 µM and 1.11 µM | – | – | GI50 (MDA-N): 0.0292 µM
CC1(C)C(CC(=O)O)CCCC1CC(=O)O (stereo unspecified) | – | – | – | – | – | – | > 100 µM | – | – | –
CCOC(=O)C(=O)C(C#N)c1ccc(Cl)cc1 (stereo unspecified) | > 100 µM | > 100 µM | > 100 µM | > 100 µM | > 100 | > 100 µM | – | – | – | –
O=C(Cc1nc2ccccc2o1)C(=O)Nc1ccc(Cl)cc1Cl | > 100 µM | > 100 µM | > 100 µM | > 100 µM | > 100 | – | – | > 100 µM | – | –

SMILES | TGI (DLD-1 colon) | TGI (DMS 114 small cell lung) | TGI (KM20L2 colon) | TGI (LXFL 529 NSCLC) | TGI (SNB-78 CNS) [µM] | TGI (XF 498 CNS) | TGI (MDA-N) | TGI (HOP-18 NSCLC) | TGI (RXF-631 renal) [µM] | also measured
COC(=O)C1=CC(=O)[C@@H]2CCCC[C@H]12 | > 100 µM | > 100 µM | > 100 µM | > 100 µM | > 100 | – | – | > 100 µM | > 100 | –
N#CCCN(c1ccc(C=O)cc1)S(=O)(=O)c1ccccc1 | – | > 100 µM | > 100 µM | > 100 µM | – | > 100 µM | – | – | – | –
NC(=O)c1csc(-c2ccc(CO)o2)n1 | – | – | – | – | – | – | > 100 µM | – | – | –
N#Cc1cccc(C2C(=O)c3ccc(C(=O)c4ccc5c(c4)C(=O)N(c4ccc(Oc6ccc(N7C(=O)c8ccc(C(=O)c9ccc%10c(c9)C(=O)N(c9cccc(C#N)c9)C%10=O)cc8C7=O)cc6)cc4)C5=O)cc3C2=O)c1 (stereo unspecified) | > 100 µM | > 100 µM | > 100 µM | > 100 µM | – | > 100 µM | – | – | > 100 | –
CN(C)c1ccc(/C=c2/c3cc(O)ccc3n3c2cc(-c2ccccc2)[n+]3C)cc1 | – | – | – | – | – | – | 1.96 µM | – | – | –
CCc1ncc(CO)n1Cc1cccc2ccccc12 | – | – | – | – | – | – | > 100 µM | – | – | –
Clc1ccccc1C1SCc2nc3ccccc3n21 (stereo unspecified) | > 100 µM | – | – | > 100 µM | 53.6 | 87.2 µM | – | – | – | –
CC#CC#C/C(=C/C=CC(=O)OC)SC | – | – | – | – | – | – | > 100 µM | – | – | –
CC[As](CC)SCC1OC(OC(C)=O)C(OC(C)=O)C(OC(C)=O)C1OC(C)=O (stereo unspecified) | 30.9 µM | 17.6 µM | 32.7 µM | 3.77 µM | 34.1 | 32 µM | – | 29.6 µM | 6.64 | –
COC1C(=O)CCC2(CO2)C1(O)C1(C)OC1CC=C(C)C (stereo unspecified) | – | – | – | – | – | – | > 100 µM | – | – | –
CC1C(O)=C(O)c2ccccc2N1O (stereo unspecified) | > 100 µM | – | > 100 µM | > 100 µM | > 100 | > 100 µM | – | > 100 µM | > 100 | –
Cc1ccccc1-n1c(CCl)nc2ccc(Br)cc2c1=O | 16.6 µM | 20.5 µM | 39.9 µM | 18.5 µM | 52.2 | – | – | 55.3 µM | 42.1 | –
CC1[C@@H]2CC=C3[C@H]4CCC5Cc6nc7c(nc6C[C@@]5(C)C4CC(=O)[C@]32CO[C@]12OC(C)(C)CC2O)CC1CC[C@@H]2C3=C[C@H]4O[C@@]5(O[C@@](C)(CO)C[C@@H]5O)C(C)[C@@]4(O)[C@]3(C)[C@@H](O)CC2[C@]1(C)C7 (stereo partly specified) | 0.709 µM and > 3.65 µM | 0.0424 µM | 0.0349 µM and 0.0754 µM | 0.00244 µM | – | 0.424 µM and 1.8 µM | 0.0303 µM | 0.393 µM and > 3.65 µM | 0.00275 | GI50 (DLD-1 colon): 0.0416 µM and 0.0575 µM; GI50 (KM20L2 colon): 0.00119 µM and 0.00294 µM; GI50 (LXFL 529 NSCLC): 0.000384 µM; GI50 (MDA-N): 0.00389 µM; TGI (P388 leukemia): 0.000638 µM; GI50 (RXF-631 renal): 0.000312 µM; TGI (SN12K1 renal): 0.397 µM; GI50 (SNB-78 CNS): 0.000777 µM and 0.00329 µM; GI50 (XF 498 CNS): 0.000725 µM and 0.00479 µM
O=C(O)CCC1c2[nH]c3ccccc3c2CCN1Cc1ccccc1 (stereo unspecified) | > 100 µM | > 100 µM | > 100 µM | > 100 µM | > 100 | – | – | > 100 µM | > 100 | –
O=C(CC(=O)c1cccc([N+](=O)[O-])c1)C(=O)Nc1ccccc1 | > 100 µM | > 100 µM | > 100 µM | > 100 µM | > 100 | > 100 µM | – | > 100 µM | > 100 | –
COc1cc2c(cc1-c1coc3cc(O)ccc3c1=O)OCO2 | – | – | – | – | – | – | > 100 µM | – | – | –
Cc1cc(Cl)cc2c1NC(=O)C2(O)C(C(=O)c1ccccc1)c1ccccc1 (stereo unspecified) | > 100 µM | 85.7 µM and 45.8 µM | > 100 µM | > 100 µM and 72.8 µM | > 100 | 82.7 µM and > 100 µM | – | > 100 µM and 95.7 µM | > 100 | GI50 (HOP-18 NSCLC): > 100 µM and 22 µM; GI50 (LXFL 529 NSCLC): 56.2 µM and 24 µM
CCCCCCCCCC[C@H](O)[C@H]1CC[C@@H]([C@@H](O)CC[C@H](O)[C@@H]2CCC(CCCCCCC[C@@H](O)CC3=C[C@H](C)OC3=O)O2)O1 (stereo partly specified) | – | – | – | – | – | – | 16 µM | – | – | GI50 (MDA-N): 2.1 µM
